Active and inactive are the calls of the source.
Columns and labels:
[1] = biological target: FAD-linked sulfhydryl oxidase ALR (Homo sapiens, UniProt P55789); assay: inhibitors of human ALR sulfhydryl oxidase, dose response, biochemical, H2O2 detection, luminescence, cherry-pick (AID 493248)
[2] = Luminescence Cell-Based Dose Retest to Confirm Inhibitors of Cancer Stem Cells. [Related pubchem assays (depositor defined):AID2717, AID2721]; format: functional; details: Homo sapiens
[3] = tested on: Vero; assay: cells; format: functional; details: Chlorocebus sabaeus
[4] = biological target: Large T antigen (Simian virus 40, UniProt P03070); format: functional, Betapolyomavirus macacae;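 further: Confirmatory-stage PubChem screen for compounds that inhibit SV40 T antigen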
[5] = THP-1 cell cytotoxicity, dose response, cytotoxicity control for non-replicating M. tuberculosis project (AID 489025); format: functional
[6] = cells; format: functional, cell-based
[7] = cells; format: functional, cell-based; remark: listed apart in the source
[8] = biological target: T1, Polyadenylate-binding protein 1 (Homo sapiens, UniProt P11940); assay: PABP1 MLLE–PAM2 binding inhibitor potency, dose response, biochemical, fluorescence polarization, FITC-PAM2 peptide (AID 602259); format: functional; details: read-out: IC50_Mean
[9] = biological target: T1, Polyadenylate-binding protein 1; assay: PABP1 MLLE–PAM2 interaction inhibitors, dose response, miRNA deadenylation inhibitor project, biochemical, fluorescence polarization, Cy5-PAM2 peptide, secondary (AID 602260); format: functional; details: read-out: IC50_Mean
[10] = biological target: T2, Protein RecA (Mycobacterium tuberculosis, UniProt P9WHJ3); assay: Fluorescence Cell-Free Homogeneous Dose Retest to Identify Inhibitors of RecA-Intein Splicing Activity. [Related pubchem assays (depositor defined):AID2097, AID2223, AID489010, AID492950]; format: functional
T2 sequence (P9WHJ3 whole entry): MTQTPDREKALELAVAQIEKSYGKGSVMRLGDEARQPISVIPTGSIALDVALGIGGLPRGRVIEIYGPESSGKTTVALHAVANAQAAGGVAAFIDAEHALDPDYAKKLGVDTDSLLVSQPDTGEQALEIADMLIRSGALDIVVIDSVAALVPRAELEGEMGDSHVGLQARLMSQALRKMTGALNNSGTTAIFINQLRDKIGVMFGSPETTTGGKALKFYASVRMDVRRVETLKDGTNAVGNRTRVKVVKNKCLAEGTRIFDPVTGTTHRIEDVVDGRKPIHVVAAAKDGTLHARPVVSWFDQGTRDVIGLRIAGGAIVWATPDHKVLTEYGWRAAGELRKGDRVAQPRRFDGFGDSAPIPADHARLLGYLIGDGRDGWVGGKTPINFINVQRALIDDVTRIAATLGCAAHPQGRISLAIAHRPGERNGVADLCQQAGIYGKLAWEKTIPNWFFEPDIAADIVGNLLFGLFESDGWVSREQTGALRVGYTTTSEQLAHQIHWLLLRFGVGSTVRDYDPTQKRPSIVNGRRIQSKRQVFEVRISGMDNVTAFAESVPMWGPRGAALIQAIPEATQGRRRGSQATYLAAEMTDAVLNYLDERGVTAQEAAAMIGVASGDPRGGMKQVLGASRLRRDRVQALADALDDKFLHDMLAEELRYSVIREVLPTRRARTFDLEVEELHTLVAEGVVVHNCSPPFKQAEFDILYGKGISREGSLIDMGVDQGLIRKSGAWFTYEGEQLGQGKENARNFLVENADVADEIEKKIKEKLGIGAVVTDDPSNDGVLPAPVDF

[11] = biological target: T3, Replicative DNA helicase DnaB (Mycobacterium tuberculosis, UniProt P9WMR3); assay: DnaB intein splicing inhibitors, dose response, biochemical, cell-free fluorescence (AID 449749); format: functional
T3 sequence (P9WMR3 whole entry): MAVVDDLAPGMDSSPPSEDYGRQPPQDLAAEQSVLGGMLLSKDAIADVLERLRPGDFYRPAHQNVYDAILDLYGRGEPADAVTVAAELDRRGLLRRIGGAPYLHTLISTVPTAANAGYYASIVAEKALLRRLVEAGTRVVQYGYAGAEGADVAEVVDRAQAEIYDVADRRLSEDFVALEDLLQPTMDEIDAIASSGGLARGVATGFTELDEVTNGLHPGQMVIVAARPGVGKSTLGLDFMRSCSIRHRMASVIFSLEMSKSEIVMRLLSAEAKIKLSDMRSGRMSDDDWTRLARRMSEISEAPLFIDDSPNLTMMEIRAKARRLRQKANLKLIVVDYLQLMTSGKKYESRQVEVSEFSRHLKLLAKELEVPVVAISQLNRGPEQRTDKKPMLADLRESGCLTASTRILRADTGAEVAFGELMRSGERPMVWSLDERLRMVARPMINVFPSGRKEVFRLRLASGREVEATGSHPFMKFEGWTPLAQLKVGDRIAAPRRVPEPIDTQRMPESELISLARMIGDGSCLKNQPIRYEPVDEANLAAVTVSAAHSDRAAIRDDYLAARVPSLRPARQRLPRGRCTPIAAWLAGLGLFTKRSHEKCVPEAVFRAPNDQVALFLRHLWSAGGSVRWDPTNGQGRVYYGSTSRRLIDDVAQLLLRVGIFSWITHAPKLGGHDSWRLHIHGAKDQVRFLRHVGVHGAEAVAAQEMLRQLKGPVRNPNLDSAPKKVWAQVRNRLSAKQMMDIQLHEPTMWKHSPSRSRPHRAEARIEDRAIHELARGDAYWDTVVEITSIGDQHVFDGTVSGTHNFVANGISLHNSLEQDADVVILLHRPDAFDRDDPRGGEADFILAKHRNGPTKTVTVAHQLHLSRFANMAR

[12] = biological target: Cytochrome P450 2C19 (Homo sapiens, UniProt P33261); assay: Cytochrome panel assay with activity outcomes. Panel member name: p450-cyp2c19 Compounds with AC50 equal or less than 10 uM are considered active; format: functional; details: read-out: AC50
[13] = inhibitors of firefly luciferase expression or activity, dose response, H4 neuroglioma cells, luminescence (AID 1990); format: functional, cell-based
[14] = Luminescence Cell-Based Dose Response HTS to Identify Inhibitors of 5'UTR Stem-Loop Driven Prion Protein mRNA Translation in H4 Neuroglioblastoma Cells. [Related pubchem assays: 1827 (Project Summary), 1813 (Primary HTS)]; format: functional
[15] = inhibitors of SNCA 5'UTR-driven reporter translation, confirmation, H4 neuroglioma cells, luminescence (AID 1988); format: functional, cell-based
[16] = cytotoxicity toward NIH3T3 fibroblasts, dose response, counter-screen, cell-based, ATP luminescence, mouse fibroblasts (AID 2010); format: functional;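 further: cells exposed to compound for about 90 hours before reading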
[17] = C. albicans growth with fluconazole, confirmation, fluorescence, retest (AID 2467); format: functional, cell-based
[18] = tested on: Streptococcus sp. 'group A'; assay: growth inhibition of control SK(-) GAS strain, dose response, counter-screen for streptokinase expression inhibitor project, luminescence, kanamycin, BacTiterGlo, confirmation (AID 1900); format: functional, organism-based
[19] = biological target: T4, Streptokinase A (Streptococcus pyogenes serotype M1, UniProt P10520); assay: S. pyogenes streptokinase expression inhibitors, potency, dose response, plasminogen activation absorbance, OD405 (AID 1914); format: functional, Streptococcus pyogenes M1 GAS;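 further: secreted streptokinase activity via plasminogen activation per viability signal from cell pellet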
T4 sequence (P10520 whole entry): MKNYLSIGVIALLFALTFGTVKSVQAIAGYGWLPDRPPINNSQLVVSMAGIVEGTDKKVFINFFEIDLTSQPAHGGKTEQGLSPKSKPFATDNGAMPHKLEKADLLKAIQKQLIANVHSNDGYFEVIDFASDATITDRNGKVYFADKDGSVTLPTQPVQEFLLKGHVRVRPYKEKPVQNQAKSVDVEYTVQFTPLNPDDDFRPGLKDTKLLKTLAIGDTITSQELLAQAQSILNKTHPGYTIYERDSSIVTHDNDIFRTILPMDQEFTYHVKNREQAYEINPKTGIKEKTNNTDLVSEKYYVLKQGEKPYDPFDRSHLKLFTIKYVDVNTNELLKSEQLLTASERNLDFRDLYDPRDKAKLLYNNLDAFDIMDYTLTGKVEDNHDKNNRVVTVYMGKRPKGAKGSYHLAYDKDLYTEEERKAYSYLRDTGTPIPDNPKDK

[20] = tested on: INS1; assay: beta cell apoptosis inhibitors, cytokine rescue, dose response, luminescence, retest (AID 449756); format: functional, cell-based; details: Rattus norvegicus;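 further: cell death triggered by IL-1 beta plus TNF-alpha plus IFN-gamma mixture; protective hits raise ATP signal compared with cytokine alone wells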
[21] = tested on: Streptococcus; assay: Group A Streptococcus viability loss, dose response, counter-screen for streptokinase expression inhibitor project, luminescence, BacTiterGlo (AID 1915); format: functional, organism-based;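 further: potency for reduction of bacterial viability or growth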
[22] = inhibitors of intracellular T. cruzi replication, confirmation, NIH3T3 host cells, beta-gal luminescence (AID 2044); format: functional, cell-based;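 further: intracellular parasites grown in NIH/3T3 mouse fibroblasts as host cells; luminescent beta-galactosidase reporter signal from transgenic T. cruzi replicating inside host cells; inhibitors lower the luminescence signal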
[23] = NIH-3T3 fibroblast cytotoxicity, dose response, cytotoxicity control, cell-based, fluorescence, Alamar Blue, secondary assay (AID 2327); format: functional;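 further: NIH-3T3 mouse fibroblasts cultured with fluconazole at 8 µg/mL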

Sequence of FAD-linked sulfhydryl oxidase ALR (P55789 whole entry): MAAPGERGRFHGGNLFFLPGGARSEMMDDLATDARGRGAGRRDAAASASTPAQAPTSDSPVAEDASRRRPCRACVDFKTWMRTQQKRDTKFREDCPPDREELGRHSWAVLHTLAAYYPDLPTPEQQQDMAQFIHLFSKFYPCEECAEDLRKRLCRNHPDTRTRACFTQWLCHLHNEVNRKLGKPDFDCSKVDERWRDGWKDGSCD
T1 sequence (P11940 whole entry): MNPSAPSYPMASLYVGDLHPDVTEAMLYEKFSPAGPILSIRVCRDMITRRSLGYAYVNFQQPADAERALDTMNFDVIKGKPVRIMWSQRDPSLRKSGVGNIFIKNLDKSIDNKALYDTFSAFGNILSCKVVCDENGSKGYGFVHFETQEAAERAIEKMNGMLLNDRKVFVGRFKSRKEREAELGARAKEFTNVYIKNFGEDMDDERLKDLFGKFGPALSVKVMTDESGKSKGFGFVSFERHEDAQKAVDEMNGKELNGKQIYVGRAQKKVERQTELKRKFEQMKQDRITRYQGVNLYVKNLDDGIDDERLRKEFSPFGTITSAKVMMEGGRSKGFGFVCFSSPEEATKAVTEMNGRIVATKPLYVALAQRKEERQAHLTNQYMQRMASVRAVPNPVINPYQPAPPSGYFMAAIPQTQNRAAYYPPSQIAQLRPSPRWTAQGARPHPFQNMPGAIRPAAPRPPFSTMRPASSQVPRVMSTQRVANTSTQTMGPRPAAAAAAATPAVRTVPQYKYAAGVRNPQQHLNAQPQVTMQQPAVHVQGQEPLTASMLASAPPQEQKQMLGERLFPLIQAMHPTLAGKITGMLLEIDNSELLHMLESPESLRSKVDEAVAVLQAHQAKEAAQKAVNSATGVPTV
Sequence of Large T antigen (P03070 whole entry): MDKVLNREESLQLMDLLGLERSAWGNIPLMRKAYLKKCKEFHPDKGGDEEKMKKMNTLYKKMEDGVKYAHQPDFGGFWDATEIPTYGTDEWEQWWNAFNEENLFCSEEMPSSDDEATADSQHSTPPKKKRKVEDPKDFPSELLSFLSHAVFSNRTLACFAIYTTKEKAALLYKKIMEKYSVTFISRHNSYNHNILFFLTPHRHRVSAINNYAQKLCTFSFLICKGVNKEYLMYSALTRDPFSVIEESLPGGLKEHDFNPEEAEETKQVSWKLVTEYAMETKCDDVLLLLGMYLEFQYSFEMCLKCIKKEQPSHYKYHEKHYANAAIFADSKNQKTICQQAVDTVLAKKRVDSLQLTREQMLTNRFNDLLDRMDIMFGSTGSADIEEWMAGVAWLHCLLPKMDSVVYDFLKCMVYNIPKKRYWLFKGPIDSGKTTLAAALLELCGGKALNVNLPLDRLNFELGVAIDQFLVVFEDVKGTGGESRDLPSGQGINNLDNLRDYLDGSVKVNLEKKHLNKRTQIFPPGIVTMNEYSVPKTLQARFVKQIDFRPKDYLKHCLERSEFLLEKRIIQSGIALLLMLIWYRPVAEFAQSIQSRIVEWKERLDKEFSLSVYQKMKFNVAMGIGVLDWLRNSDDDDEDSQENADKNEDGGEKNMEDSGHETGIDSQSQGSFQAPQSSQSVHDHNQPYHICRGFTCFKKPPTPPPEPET
Sequence of Cytochrome P450 2C19 (P33261 whole entry): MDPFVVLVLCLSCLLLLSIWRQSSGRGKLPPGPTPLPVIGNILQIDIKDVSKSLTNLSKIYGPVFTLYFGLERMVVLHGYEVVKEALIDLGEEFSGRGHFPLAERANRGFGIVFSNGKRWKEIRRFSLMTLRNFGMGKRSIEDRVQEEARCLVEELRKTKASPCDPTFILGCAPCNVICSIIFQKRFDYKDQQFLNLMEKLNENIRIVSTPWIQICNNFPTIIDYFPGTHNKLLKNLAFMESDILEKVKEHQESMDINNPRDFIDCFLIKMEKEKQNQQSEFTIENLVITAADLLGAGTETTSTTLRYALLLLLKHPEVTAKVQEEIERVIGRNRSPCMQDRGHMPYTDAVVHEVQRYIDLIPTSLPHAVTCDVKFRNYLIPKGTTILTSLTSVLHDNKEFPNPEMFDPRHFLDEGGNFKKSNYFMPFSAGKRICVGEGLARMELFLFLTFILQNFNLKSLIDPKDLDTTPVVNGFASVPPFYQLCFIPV

## CN1C(=O)C(=CNNc2ccccc2)C(=O)N(C)C1=O
[1]
  AC50: 0.031 µM (active)
[2]
  AC50: 2.87 µM (active)

## CCOc1ccc(NCc2cccn2-c2nnc(N3CCC(C(=O)NCCCN4CC(C)CC(C)C4)CC3)s2)cc1 (stereo unspecified)
[3]
  CC50: 23.9 µM (active)
[4]
  IC50: 19.3 µM (active)

## CC(C)NS(=O)(=O)c1ccc2c(c1)NCC2
[1]
  AC50: 5.77 µM (active)

## O=S(=O)(c1ccc(OCC2CO2)cc1)c1ccc(OCC2CO2)cc1 (stereo unspecified)
[5]
  CC50: 32.2 µM (active)

## O=C1Nc2ccc(Cl)cc2/C1=C/C1CC=CCC1 (stereo unspecified)
[6]
  EC50: > 350 µM (not active)
[7]
  EC50: 61.2 µM (active)

## Cc1ccc(N2C(=O)C3C4C=CC(CN=C(S)Nc5cccc(Cl)c5)(O4)C3C2=O)cc1 (stereo unspecified)
[8]
  IC50: > 66 µM (inactive)
[9]
  IC50: > 66 µM (inactive)

## COc1ccc(N2CCN(C(=O)CN(C)S(=O)(=O)c3cc(C)ccc3OC)CC2)cc1
[6]
  EC50: > 350 µM (not active)
[7]
  EC50: > 350 µM (not active)

## Cc1nc2ccccc2n2c(-c3ccccc3)c3c(=O)n(C)c(=O)n(C)c3c12
[6]
  EC50: > 350 µM (not active)
[7]
  EC50: > 350 µM (not active)

## Cn1nc(C(C)(C)C)cc1C(=O)Sc1cccc(Br)c1
[10]
  EC50: 37.1 µM (inconclusive)
[8]
  IC50: > 66 µM (inactive)
[11]
  AC50: 16.4 µM (active)
[9]
  IC50: > 66 µM (inactive)

## COc1ccc(-c2nc(C#N)c(N3CCN(C(=O)c4ccco4)CC3)o2)cc1OC
[6]
  EC50: > 350 µM (not active)
[7]
  EC50: > 350 µM (not active)

## O=C1c2ccccc2C(=O)N1CC1=CCS(=O)(=O)C1
[8]
  IC50: > 66 µM (inactive)
[9]
  IC50: > 66 µM (inactive)

## Oc1cc(O)nc(SCc2ccccc2)n1
[1]
  AC50: 2.33 µM (active)

## Cc1ccc(C(=O)NC(=S)Nc2ccc(N3CCN(C(=O)c4ccco4)CC3)cc2)cc1
[8]
  IC50: > 66 µM (inactive)
[9]
  IC50: > 66 µM (inactive)

## COc1cccc(-c2noc(Cn3nc(C)c([N+](=O)[O-])c3C)n2)c1
[12]
  AC50: 1 µM (inconclusive)
[1]
  AC50: 0.983 µM (active)

## CN(Cc1ccccc1)C(=O)CC(=O)N(C)Cc1ccccc1
[6]
  EC50: > 350 µM (not active)
[7]
  EC50: > 350 µM (not active)

## COc1ccc(S(=O)(=O)N(C(=O)C(C)C)c2ccc3oc(=O)sc3c2)cc1
[8]
  IC50: > 66 µM (inactive)
[9]
  IC50: > 66 µM (inactive)

## CC(C)c1ccc(CN(C)C(=O)c2ccc(S(=O)(=O)NCc3ccco3)cc2)cc1
[3]
  CC50: 12.7 µM (active)

## Nc1nonc1-n1nnc(C(=O)N/N=C/c2ccc(OCc3ccc(F)cc3)cc2)c1COc1ccccc1
[3]
  CC50: > 25 µM (active)

## Oc1ccc(Br)cc1/C=N/c1cccn2cc(-c3ccccc3)nc12
[8]
  IC50: > 66 µM (inactive)
[9]
  IC50: > 66 µM (inactive)

## O=C(N/N=C\c1c(O)ccc2ccccc12)c1ccc(O)cc1
[13]
  EC50: 10 µM (active)
[6]
  EC50: 10.6 µM (active)
[7]
  EC50: > 350 µM (not active)
[14]
  EC50: 8.71 µM (active)
[15]
  EC50: 5.97 µM (active)

## CCN(CC)c1ccc(/C=N/NC(=O)CNC(=O)C2COc3ccccc3O2)c(O)c1 (stereo unspecified)
[13]
  EC50: 0.229 µM (active)
[16]
  EC50: 4.2 µM (active)
[17]
  EC50: 1.51 µM (active)
[6]
  EC50: 66.6 µM (active)
[7]
  EC50: > 350 µM (not active)
[18]
  EC50: 8.15 µM (active)
[19]
  EC50: > 150 µM (not active)
[20]
  AC50: 1.31 µM (active)
[21]
  EC50: > 150 µM (not active)
[22]
  EC50: 1.2 µM (active)
[14]
  EC50: 0.646 µM (active)
[23]
  EC50: 5.42 µM (inconclusive)
[15]
  EC50: 0.311 µM (active)

## COc1cc(/C=N/N2CCCCC2)cc(OC)c1O
[1]
  AC50: 0.639 µM (active)

## CCC/C(=N/NC(=O)c1cccc(Cl)c1)c1ccccc1
[6]
  EC50: > 350 µM (not active)
[7]
  EC50: > 350 µM (not active)

Source: ChEMBL document CHEMBL1201862, “PubChem BioAssay data set” (2004)
